# Source: patent publication US11820766B2, “Monoacylglycerol lipase modulators” (Janssen Pharmaceutica NV, priority 2018, dated 2023)
# Molecular target: T1, human MGL from HeLa cells (Homo sapiens, UniProt Q99685)
# T1 construct: combining endogenously expressed MGL from HeLa cells with test compounds; endogenous in cells; host or cells: HeLa cells / cell homogenates
# T1 sequence (Q99685 1-303): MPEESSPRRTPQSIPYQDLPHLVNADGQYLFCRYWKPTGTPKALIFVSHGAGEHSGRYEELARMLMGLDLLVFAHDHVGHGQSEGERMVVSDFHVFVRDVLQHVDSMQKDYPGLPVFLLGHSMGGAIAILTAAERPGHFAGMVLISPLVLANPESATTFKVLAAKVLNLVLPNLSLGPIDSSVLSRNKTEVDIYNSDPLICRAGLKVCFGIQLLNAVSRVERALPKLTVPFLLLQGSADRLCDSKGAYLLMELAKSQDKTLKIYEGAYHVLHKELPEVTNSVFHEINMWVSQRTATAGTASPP
# Experiment: In vitro MGL activity assay: [glycerol-1,3-3H]-oleyl glycerol cleavage by MGL from HeLa cells
# Type: biochemical
# Settings: 300 nM [Glycerol-1,3-3H]-oleyl glycerol, one hour
# Text: MGL is the predominant hydrolase in HeLa cells/cell homogenates.
row,IC50,Compound
1,25.1 nM,"C[C@H]1c2nn(C)c(-c3cccc4ccoc34)c2CCN1C(=O)c1ccc2ncccc2c1 [Example 534, [(7S)-3-(Benzofuran-7-yl)-2,7-dimethyl-5,7-dihydro-4H-pyrazolo[3,4-c]pyridin-6-yl]-(6-quinolyl)methanone]"
2,55.2 nM,"C[C@H]1c2nn(C)c(-c3cccc4c3OCC4)c2CCN1C(=O)c1ccc2ncccc2c1 [Example 539, [(7S)-3-(2,3-Dihydrobenzofuran-7-yl)-2,7-dimethyl-5,7-dihydro-4H-pyrazolo[3,4-c]pyridin-6-yl]-(6-quinolyl)methanone]"
3,25.3 nM,"C[C@H]1c2nn(C)c(-c3ccc(Cl)c(F)c3)c2CCN1C(=O)c1ccc2ncccc2c1 [Example 504, [(7S)-3-(4-Chloro-3-fluoro-phenyl)-2,7-dimethyl-5,7-dihydro-4H-pyrazolo[3,4-c]pyridin-6-yl]-(6-quinolyl)methanone]"

# Further lines, the compound ahead of its results:
row,Compound,IC50
1,"Cc1nn2c(c1C(=O)N1CCc3c(nn(C)c3-c3cc(F)c(F)c(F)c3)[C@@H]1C)COC(C)(C)C2 [Example 556, [(7S)-2,7-Dimethyl-3-(3,4,5-trifluorophenyl)-5,7-dihydro-4H-pyrazolo[3,4-c]pyridin-6-yl]-(2,6,6-trimethyl-4,7-dihydropyrazolo[5,1-c][1,4]oxazin-3-yl)methanone]",803 nM
2,"C[C@H]1c2nn(C)c(-c3cc(F)c(F)c(F)c3)c2CCN1C(=O)c1cnc2n1CCC2 [Example 559, 6,7-Dihydro-5H-pyrrolo[1,2-a]imidazol-3-yl-[(7S)-2,7-dimethyl-3-(3,4,5-trifluorophenyl)-5,7-dihydro-4H-pyrazolo[3,4-c]pyridin-6-yl]methanone]",294 nM
3,"COc1ccc(F)cc1-c1c2c(nn1C)[C@H](C)N(C(=O)c1ccc3ncccc3c1)CC2 [Example 508, [(7S)-3-(5-Fluoro-2-methoxy-phenyl)-2,7-dimethyl-5,7-dihydro-4H-pyrazolo[3,4-c]pyridin-6-yl]-(6-quinolyl)methanone]",70 nM
4,"Cc1nn2ccccc2c1C(=O)N1CCc2c(nn(C)c2-c2cc(F)c(F)c(F)c2)[C@@H]1C [Example 382, [(7S)-2,7-Dimethyl-3-(3,4,5-trifluorophenyl)-5,7-dihydro-4H-pyrazolo[3,4-c]pyridin-6-yl]-(2-methylpyrazolo[1,5-a]pyridin-3-yl)methanone]",4.26 nM
5,"C[C@H]1c2nn(C)c(-c3cc(F)c(F)c(F)c3)c2CCN1C(=O)c1cn(-c2ccccc2)cn1 [Example 601, [(7S)-2,7-Dimethyl-3-(3,4,5-trifluorophenyl)-5,7-dihydro-4H-pyrazolo[3,4-c]pyridin-6-yl]-(1-phenylimidazol-4-yl)methanone]",252 nM
6,"COc1cc(F)cc(-c2c3c(nn2C)[C@H](C)N(C(=O)c2nccc(OC)c2Cl)CC3)c1 [Example 614, (3-Chloro-4-methoxy-2-pyridyl)-[(7S)-3-(3-fluoro-5-methoxy-phenyl)-2,7-dimethyl-5,7-dihydro-4H-pyrazolo[3,4-c]pyridin-6-yl]methanone]",35.9 nM
7,"Cc1ccnc2c(C(=O)N3CCc4c(nn(C)c4-c4cc(F)c(F)c(F)c4)[C@@H]3C)cnn12 [Example 450, [(7S)-2,7-Dimethyl-3-(3,4,5-trifluorophenyl)-5,7-dihydro-4H-pyrazolo[3,4-c]pyridin-6-yl]-(7-methylpyrazolo[1,5-a]pyrimidin-3-yl) methanone]",172 nM
8,"C[C@H]1c2nn(C)c(-c3cc(F)c(F)c(F)c3)c2CCN1C(=O)c1ccc2cnccc2c1 [Example 544, [(7S)-2,7-Dimethyl-3-(3,4,5-trifluorophenyl)-5,7-dihydro-4H-pyrazolo[3,4-c]pyridin-6-yl]-(6-isoquinolyl)methanone]",10.2 nM
9,"Cc1cc(F)cc(-c2c3c(nn2C)[C@H](C)N(C(=O)c2ncnc4c2ccn4C)CC3)c1 [Example 465, [(7S)-3-(3-Fluoro-5-methyl-phenyl)-2,7-dimethyl-5,7-dihydro-4H-pyrazolo[3,4-c]pyridin-6-yl]-(7-methylpyrrolo[2,3-d]pyrimidin-4-yl) methanone]",8.46 nM
10,"C[C@H]1c2nn(C)c(-c3cc(F)c(F)c(F)c3)c2CCN1C(=O)c1cc2c(cn1)OCCC2 [Example 573, 3,4-Dihydro-2H-pyrano[2,3-c]pyridin-6-yl-[(7S)-2,7-dimethyl-3-(3,4,5-trifluorophenyl)-5,7-dihydro-4H-pyrazolo[3,4-c]pyridin-6-yl]methanone]",242 nM
11,"C[C@H]1c2nn(C)c(-c3cc(F)c(F)c(F)c3)c2CCN1C(=O)c1nccn2cccc12 [Example 415, [(7S)-2,7-Dimethyl-3-(3,4,5-trifluorophenyl)-5,7-dihydro-4H-pyrazolo[3,4-c]pyridin-6-yl]-pyrrolo[1,2-a] pyrazin-1-yl-methanone]",13.3 nM
12,"C[C@H]1c2nn(C)c(-c3cc(F)c(F)c(F)c3)c2CCN1C(=O)c1ncnc2nc[nH]c12 [Example 470, [(7S)-2,7-Dimethyl-3-(3,4,5-trifluorophenyl)-5,7-dihydro-4H-pyrazolo[3,4-c]pyridin-6-yl]-(7H-purin-6-yl)methanone]",3350 nM
13,"C[C@H]1c2nn(C)c(-c3cc(F)c(F)c(F)c3)c2CCN1C(=O)c1nc(-c2ccccc2)cn1C [Example 600, [(7S)-2,7-Dimethyl-3-(3,4,5-trifluorophenyl)-5,7-dihydro-4H-pyrazolo[3,4-c]pyridin-6-yl]-(1-methyl-4-phenyl-imidazol-2-yl)methanone]",110 nM

# Same assay, conditions: 300 nM [Glycerol-1,3-3H]-oleyl glycerol, one hour incubation
row,IC50,Compound
1,4180 nM,"Cn1nc2c(c1-c1ccccc1)CCN(C(=O)c1ccc3ocnc3c1)C2 [Example 58, Benzo[d]oxazol-5-yl(2-methyl-3-phenyl-2,4,5,7-tetrahydro-6H-pyrazolo[3,4-c]pyridin-6-yl)methanone]"
2,1950 nM,"Cn1nc2c(c1-c1ccccc1)CCN(C(=O)c1ccc3c(c1)OCO3)C2 [Example 29, Benzo[d][1,3]dioxol-5-yl(2-methyl-3-phenyl-2,4,5,7-tetrahydro-6H-pyrazolo[3,4-c]pyridin-6-yl)methanone]"
3,113 nM,"COc1c(C)cccc1C(=O)N1CCc2c(nn(C)c2-c2ccccc2)C1 [Example 7, (2-Methoxy-3-methylphenyl)(2-methyl-3-phenyl-2,4,5,7-tetrahydro-6H-pyrazolo[3,4-c]pyridin-6-yl)methanone]"
4,68 nM,"Cn1nc2c(c1-c1ccccc1)CCN(C(=O)c1cccc3sccc13)C2 [Example 38, Benzo[b]thiophen-4-yl(2-methyl-3-phenyl-2,4,5,7-tetrahydro-6H-pyrazolo[3,4-c]pyridin-6-yl)methanone]"
5,101 nM,"Cn1nc2c(c1-c1ccccc1)CCN(C(=O)c1cccc3[nH]ncc13)C2 [Example 65, (1H-Indazol-4-yl)(2-methyl-3-phenyl-2,4,5,7-tetrahydro-6H-pyrazolo[3,4-c]pyridin-6-yl)methanone]"
6,18.4 nM,"CC1c2nn(C)c(-c3cccc(Cl)c3)c2CCN1C(=O)c1ccc2nccnc2c1 (racemic) [Example 132, (3-(3-Chlorophenyl)-2,7-dimethyl-2,4,5,7-tetrahydro-6H-pyrazolo[3,4-c]pyridin-6-yl)(quinoxalin-6-yl)methanone]"
7,39.8 nM,"Cn1nc2c(c1-c1ccccc1)CCN(C(=O)c1cncc3ccccc13)C2 [Example 87, Isoquinolin-4-yl(2-methyl-3-phenyl-2,4,5,7-tetrahydro-6H-pyrazolo[3,4-c]pyridin-6-yl)methanone]"
8,613 nM,"Cn1nc2c(c1-c1ccccc1)CCN(C(=O)c1cnn3ccccc13)C2 [Example 74, (2-Methyl-3-phenyl-2,4,5,7-tetrahydro-6H-pyrazolo[3,4-c]pyridin-6-yl)(pyrazolo[1,5-a]pyridin-3-yl)methanone]"
9,6.96 nM,"C[C@H]1c2nn(C)c(-c3ccccc3)c2CCN1C(=O)c1ccc2ncccc2c1 (single isomer, unassigned) [Example 112]"

# Second part, the compound before the results:
row,Compound,IC50
1,"CC1c2nn(C)c(-c3cc(F)cc(F)c3)c2CCN1C(=O)c1ccc2ccncc2c1 (stereo not shown) [Example 161, (3-(3,5-Difluorophenyl)-2,7-dimethyl-2,4,5,7-tetrahydro-6H-pyrazolo[3,4-c]pyridin-6-yl)(isoquinolin-7-yl)methanone]",260 nM
2,"C[C@H]1c2nn(C)c(-c3cc(F)c(F)c(F)c3)c2CCN1C(=O)c1cn(C)c2ncccc12 [Example 223, (S)-(2,7-Dimethyl-3-(3,4,5-trifluorophenyl)-2,4,5,7-tetrahydro-6H-pyrazolo[3,4-c]pyridin-6-yl)(1-methyl-1H-pyrrolo[2,3-b]pyridin-3-yl)methanone]",87.6 nM
3,"C[C@H]1c2nn(C)c(-c3cc(F)cc(F)c3)c2CCN1C(=O)c1cc(F)cc(OCCF)c1 [Example 143, (S)-(3-(3,5-Difluorophenyl)-2,7-dimethyl-2,4,5,7-tetrahydro-6H-pyrazolo[3,4-c]pyridin-6-yl)(3-fluoro-5-(2-fluoroethoxy)phenyl)methanone]",4.21 nM
4,"COc1cnc(C(=O)N2CCc3c(nn(C)c3-c3cc(F)c(F)c(F)c3)[C@@H]2C)cn1 [Example 326, [(7S)-2,7-Dimethyl-3-(3,4,5-trifluorophenyl)-5,7-dihydro-4H-pyrazolo[3,4-c]pyridin-6-yl]-(5-methoxypyrazin-2-yl)methanone]",522 nM
5,"Cc1nc(C(=O)N2CCc3c(nn(C)c3-c3cc(F)c(F)c(F)c3)[C@@H]2C)nn1-c1ccc(F)cc1 [Example 322, [(7S)-2,7-Dimethyl-3-(3,4,5-trifluorophenyl)-5,7-dihydro-4H-pyrazolo[3,4-c]pyridin-6-yl]-[1-(4-fluorophenyl)-5-methyl-1,2,4-triazol-3-yl]methanone]",34.6 nM
6,"COc1ccnc(C(=O)N2CCc3c(nn(C)c3-c3cc(F)c(F)c(F)c3)[C@@H]2C)c1Cl [Example 317, (3-Chloro-4-methoxy-2-pyridyl)-[(7S)-2,7-dimethyl-3-(3,4,5-trifluorophenyl)-5,7-dihydro-4H-pyrazolo[3,4-c]pyridin-6-yl]methanone]",30.1 nM
